The text below walks through data of patent US7371563B2, “Peelable and resealable devices for biochemical assays” (Surface Logix, Inc., priority 2000, dated 2008).

This experiment has as its target T1, β1,4-galactosyltransferase (Bos taurus, UniProt P08037).
T1 sequence (P08037 1-402): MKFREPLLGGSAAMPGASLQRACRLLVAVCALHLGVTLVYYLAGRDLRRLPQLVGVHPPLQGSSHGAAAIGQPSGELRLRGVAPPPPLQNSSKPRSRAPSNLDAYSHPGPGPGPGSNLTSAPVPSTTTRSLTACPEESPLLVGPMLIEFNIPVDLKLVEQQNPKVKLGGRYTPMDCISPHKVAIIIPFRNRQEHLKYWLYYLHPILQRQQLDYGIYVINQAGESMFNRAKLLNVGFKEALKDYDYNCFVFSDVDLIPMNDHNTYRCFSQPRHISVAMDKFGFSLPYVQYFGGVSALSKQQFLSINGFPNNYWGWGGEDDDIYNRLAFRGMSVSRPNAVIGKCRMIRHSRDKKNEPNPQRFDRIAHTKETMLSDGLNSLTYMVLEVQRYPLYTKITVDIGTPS
Nature of the experiment: Glycosyltransferase assay on immobilized carbohydrates. The note with it: immobilized carbohydrate; UDP [^14C] galactose, 3.5 μM; phosphorimaging. Format: biochemical, bovine. How it is done:
FIG. 41 represents the results of a glycosyltransferase assay. The surface comprises 3 different carbohydrate substrates defined by columns and a control column (no substrate). Each row was reacted with a different concentration of β1,4-galactosyltransferase and a constant concentration of sugar donor (UDP [^14C] galactose, 3.5 μM). The reaction was detected by phosphorimaging.
Referring to FIG. 41, in the glycosyltransferase assay, various carbohydrates were immobilized using a thiol chemical tag to bond to a monolayer thiolate bearing a maleimide group. A glycosyltransferase enzyme was added to the immobilized carbohydrates. The ability of the enzyme to add radioactively labeled sugars to the immobilized carbohydrates was measured. In the glycosyltransferase assay the enzyme that was employed is bovine recombinant β 1,4-galactosyltransferase. Preferably, the enzyme is at a concentration of about 10 pM to about 100 uM. More preferably, the enzyme is at a concentration of about 100 pM to about 1 uM. […]
Detection of glycosylation of the immobilized carbohydrate substrates on the base plate was performed radiometrically. The incorporation of ^14C was quantified by exposing a storage phosphor screen to the plate and then imaging it on a Variable Mode Imager (Typhoon 8600; Molecular Dynamics, Sunnyvale, Calif.). […]

For `CC(=O)N[C@H]1C(O)O[C@H](CO)[C@@H](O)[C@@H]1O` (stereo partly shown) [GlcNAc], the “substrate for β1,4-galactosyltransferase” value is given as “only the immobilized GlcNAc was a substrate”.
